Among the data in patent publication EP2970215B1, “PYRROLIDINE DERIVATIVES, PHARMACEUTICAL COMPOSITIONS CONTAINING THEM, AND THEIR USE IN THERAPY” (AbbVie Deutschland GmbH & Co. KG, priority 2013, dated 2014) are Ki values, retold here.

The first experiment has as its target T1, human GlyT1c transporter (Homo sapiens, UniProt P48067).
T1 construct: expressed in transfected cells; host or cells: CHO cells (recombinant; line hGlyT1c_5_CHO is named for the uptake assay)
T1 sequence (P48067 1-706): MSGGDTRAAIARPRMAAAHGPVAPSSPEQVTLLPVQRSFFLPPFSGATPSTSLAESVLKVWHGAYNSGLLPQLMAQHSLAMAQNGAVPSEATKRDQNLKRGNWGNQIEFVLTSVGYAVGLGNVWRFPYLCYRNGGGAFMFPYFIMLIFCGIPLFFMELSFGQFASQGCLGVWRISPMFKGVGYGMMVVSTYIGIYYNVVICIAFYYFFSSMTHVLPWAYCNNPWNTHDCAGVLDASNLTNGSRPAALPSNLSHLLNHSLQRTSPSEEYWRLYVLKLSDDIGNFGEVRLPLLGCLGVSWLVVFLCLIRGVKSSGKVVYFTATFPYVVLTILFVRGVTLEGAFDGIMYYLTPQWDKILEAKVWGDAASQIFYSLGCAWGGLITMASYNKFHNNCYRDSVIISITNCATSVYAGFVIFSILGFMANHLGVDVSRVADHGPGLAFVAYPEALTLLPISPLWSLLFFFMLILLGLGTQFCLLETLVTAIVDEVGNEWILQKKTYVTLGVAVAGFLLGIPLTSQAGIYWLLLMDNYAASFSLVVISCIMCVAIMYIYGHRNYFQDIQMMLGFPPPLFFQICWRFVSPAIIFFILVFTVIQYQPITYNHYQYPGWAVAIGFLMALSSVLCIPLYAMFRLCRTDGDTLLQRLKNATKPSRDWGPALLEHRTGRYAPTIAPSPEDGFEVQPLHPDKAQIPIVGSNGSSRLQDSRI
Nature of the experiment: Radioligand binding assay using recombinant CHO cell membranes expressing human GlyT1. The note with it: radioligand binding to human GlyT1c transporter-expressing membranes. An excerpt: 2. Radioligand binding assays using recombinant CHO cell membranes expressing human GlyT1: […]
Consider `Cn1cnc(S(=O)(=O)N2C[C@@H](CNc3ccc(F)c(OC(F)(F)F)c3)[C@H](c3ccc(F)cc3)C2)c1` (relative stereo) [Example 376, 4-fluoro-N-({trans-4-(4-fluorophenyl)-1-[(1-methyl-1H-imidazol-4-yl)sulfonyl]pyrrolidin-3-yl}methyl)-3-(trifluoromethoxy)aniline], for which the Ki is no more than 1000 nM.
`COCCNC[C@@H]1CN(S(=O)(=O)c2cn(C)cn2)C[C@H]1c1ccc(F)cc1` (relative stereo) [Example 593, N-({trans-4-(4-fluorophenyl)-1-[(1-methyl-1H-imidazol-4-yl)sulfonyl]pyrrolidin-3-yl}methyl)-2-methoxyethanamine]: the inhibition constant Ki is no more than 10000 nM.
As to `CCCCCCN(CCCCCC)[C@@H]1CN(S(=O)(=O)c2cn(C)cn2)C[C@H]1c1ncccc1F` (relative stereo) [Example 763, Trans-4-(3-fluoropyridin-2-yl)-N,N-dihexyl-1-[(1-methyl-1H-imidazol-4-yl)sulfonyl]pyrrolidin-3-amine], the Ki was no more than 1000 nM.
For the compound `Cn1cnc(S(=O)(=O)N2C[C@@H](COc3cc(C(F)(F)F)ncn3)[C@H](c3ccc(F)cc3)C2)c1` (relative stereo) [Example 336, 4-({Trans-4-(4-fluorophenyl)-1-[(1-methyl-1H-imidazol-4-yl)sulfonyl]pyrrolidin-3-yl}methoxy)-6-(trifluoromethyl)pyrimidine], the inhibitory constant (Ki) is no more than 1000 nM.
For `Cn1cnc(S(=O)(=O)N2C[C@@H](C(=O)Nc3cccc(Cl)c3)[C@H](c3ccc(F)cc3)C2)c1` (relative stereo) [Example 304, trans-N-(3-chlorophenyl)-4-(4-fluorophenyl)-1-[(1-methyl-1H-imidazol-4-yl)sulfonyl]pyrrolidine-3-carboxamide], the Ki was no more than 1000 nM.
Consider `CC(C)CCN[C@H]1CN(S(=O)(=O)c2cn(C)cn2)C[C@@H]1c1ccccc1` [Example 463, (3R,4S)-N-(3-methylbutyl)-1-[(1-methyl-1H-imidazol-4-yl)sulfonyl]-4-phenylpyrrolidin-3-amine], for which the inhibition constant (Ki) is no more than 1000 nM.
Regarding `Cn1cnc(S(=O)(=O)N2C[C@H](Nc3cc(-c4cccc(F)c4)ncn3)[C@@H](c3ccc(F)cc3)C2)c1` [Example 727, 6-(3-fluorophenyl)-N-{(3R,4S)-4-(4-fluorophenyl)-1-[(1-methyl-1H-imidazol-4-yl)sulfonyl]pyrrolidin-3-yl}pyrimidin-4-amine], the Ki was no more than 10 nM.
As to `CCCNC[C@@H]1CN(S(=O)(=O)c2cn(C)cn2)C[C@H]1c1ccc(F)cc1` (relative stereo) [Example 594, N-({trans-4-(4-fluorophenyl)-1-[(1-methyl-1H-imidazol-4-yl)sulfonyl]pyrrolidin-3-yl}methyl)propan-1-amine], the Ki was no more than 10000 nM.
As to `Cn1cnc(S(=O)(=O)N2C[C@H](NCCOc3ccc(C(C)(C)C)cc3)[C@@H](c3ccccc3)C2)c1` [Example 469, (3R,4S)-N-[2-(4-tert-butylphenoxy)ethyl]-1-[(1-methyl-1H-imidazol-4-yl)sulfonyl]-4-phenylpyrrolidin-3-amine], the Ki is no more than 1000 nM.
With `Cn1cnc(S(=O)(=O)N2C[C@@H]([C@@H]3CCCOC3)[C@H](Nc3ccc(F)c(OC(F)(F)F)c3)C2)c1` (mixture of isomers) [Example 788, Trans-N-[4-fluoro-3-(trifluoromethoxy)phenyl]-1-[(1-methyl-1H-imidazol-4-yl)sulfonyl]-4-[(3S)-tetrahydro-2H-pyran-3-yl]pyrrolidin-3-amine], the Ki was no more than 1000 nM.
On the same count and under the same terms, to `Cn1cnc(S(=O)(=O)N2C[C@@H](Nc3cccc(Cl)c3)[C@H](OCC3CC3)C2)c1` (relative stereo) [Example 530, Trans-N-(3-chlorophenyl)-4-(cyclopropylmethoxy)-1-[(1-methyl-1H-imidazol-4-yl)sulfonyl]pyrrolidin-3-amine] belongs no more than 1000 nM; to `CCCCCCN[C@@H]1CN(S(=O)(=O)c2cn(C)nn2)C[C@H]1c1ncccc1F` (relative stereo) [Example 811, Trans-4-(3-fluoropyridin-2-yl)-N-hexyl-1-[(1-methyl-1H-1,2,3-triazol-4-yl)sulfonyl]pyrrolidin-3-amine], no more than 100 nM; to `Cn1cnc(S(=O)(=O)N2C[C@@H](Nc3ccc(F)c(OC(F)(F)F)c3)[C@H](c3ccccc3)C2)c1` (relative stereo) [Example 298, trans-N-[4-fluoro-3-(trifluoromethoxy)phenyl]-1-[(1-methyl-1H-imidazol-4-yl)sulfonyl] -4-phenylpyrrolidin-3-amine], no more than 10 nM.
Turning to `Cn1cnc(S(=O)(=O)N2C[C@@H](Nc3cncc(C(F)(F)F)c3)[C@H](c3ccccc3)C2)c1` (relative stereo) [Example 213, N-{trans-1-[(1-methyl-1H-imidazol-4-yl)sulfonyl]-4-phenylpyrrolidin-3-yl} -5 - (trifluoromethyl)pyridin-3-amine], the inhibition constant (Ki) is no more than 1000 nM.
In the case of `Cn1cnc(S(=O)(=O)N2C[C@@H](Nc3cc(F)cc(Cl)c3)[C@H](c3ccc(F)cc3)C2)c1` (relative stereo) [Example 174, trans-N-(3-chloro-5-fluorophenyl)-4-(4-fluorophenyl)-1-[(1-methyl-1H-imidazol-4-yl)sulfonyl]pyrrolidin-3-amine], the Ki is no more than 1000 nM.
In the case of `Cn1cnc(S(=O)(=O)N2C[C@H](NCc3cccnc3-c3ccc(F)cc3)[C@@H](c3ccccc3)C2)c1` [Example 571, (3R,4S)-N-{[2-(4-fluorophenyl)pyridin-3-yl]methyl}-1-[(1-methyl-1H-imidazol-4-yl)sulfonyl]-4-phenylpyrrolidin-3-amine], the Ki was no more than 10000 nM.
Take `O=c1[nH]c2ccc(S(=O)(=O)N3CC(Nc4ccc(F)c(F)c4)C(c4ccccc4)C3)cc2[nH]c1=O` (centres unmarked) [Example 501, 6-({3-[(3,4-difluorophenyl)amino]-4-phenylpyrrolidin-1-yl}sulfonyl)-1,4-dihydroquinoxaline-2,3-dione]: the Ki was no more than 10000 nM.
As for `Cn1cnc(S(=O)(=O)N2C[C@H](NC(=O)Nc3ccc(Cl)cc3)[C@@H](c3ccc(F)cc3)C2)c1` [Example 701, 1-(4-chlorophenyl)-3-{(3R,4S)-4-(4-fluorophenyl)-1-[(1-methyl-1H-imidazol-4-yl)sulfonyl]pyrrolidin-3-yl}urea], the inhibitory constant (Ki) was no more than 1000 nM.
Regarding `Cc1cccc(C(=O)[C@@H]2CN(S(=O)(=O)c3cn(C)cn3)C[C@H]2c2ccc(F)cc2)c1` (relative stereo) [Example 300, {trans-4-(4-fluorophenyl)-1-[(1-methyl-1H-imidazol-4-yl)sulfonyl]pyrrolidin-3-yl}(3-methylphenyl)methanone], the Ki was no more than 1000 nM.
Regarding `COc1ccc(N[C@@H]2CN(S(=O)(=O)c3cn(C)cn3)C[C@H]2c2ccccc2)cc1C#N` (relative stereo) [Example 100, 2-methoxy-5-({trans-1-[(1-methyl-1H-imidazol-4-yl)sulfonyl]-4-phenylpyrrolidin-3-yl}amino)benzonitrile], the inhibitory constant (Ki) was no more than 10000 nM.
With `Cn1cnc(S(=O)(=O)N2C[C@H](NCC3CCC(C(F)(F)F)CC3)[C@@H](c3ccc(F)cc3)C2)c1` (stereo partly drawn) [Example 707, (3R,4S)-4-(4-fluorophenyl)-1-[(1-methyl-1H-imidazol-4-yl)sulfonyl]-N-{[4-(trifluoromethyl)cyclohexyl]methyl}pyrrolidin-3-amine], the Ki was no more than 1000 nM.
For the compound `Cc1cc(N[C@@H]2CN(S(=O)(=O)c3cn(C)cn3)C[C@H]2c2ncccc2F)ncc1F` (relative stereo) [Example 769, 5-fluoro-N-{trans-4-(3-fluoropyridin-2-yl)-1-[(1-methyl-1H-imidazol-4-yl)sulfonyl]pyrrolidin-3-yl}-4-methylpyridin-2-amine], the Ki was no more than 1000 nM.
For `Cc1cccc(NC[C@@H]2CN(S(=O)(=O)c3cn(C)cn3)C[C@H]2c2ccc(F)cc2)c1` (relative stereo) [Example 334, N-({Trans-4-(4-fluorophenyl)-1-[(1-methyl-1H-imidazol-4-yl)sulfonyl]pyrrolidin-3-yl}methyl)-3-methylaniline], the Ki is no more than 1000 nM.
With `Cn1cnc(S(=O)(=O)N2C[C@H](Nc3cc(-c4ccccc4F)ncn3)[C@@H](c3ccc(F)cc3)C2)c1` [Example 726, 6-(2-fluorophenyl)-N-{(3R,4S)-4-(4-fluorophenyl)-1-[(1-methyl-1H-imidazol-4-yl)sulfonyl]pyrrolidin-3-yl}pyrimidin-4-amine], the inhibition constant (Ki) was no more than 100 nM.
Still for that read-out and setting: for `Cn1cnc(S(=O)(=O)N2C[C@@H](NC(=O)c3ccccc3C#N)[C@H](c3ccccc3)C2)c1` (relative stereo) [Example 32, 2-cyano-N-{trans-1-[(1-methyl-1H-imidazol-4-yl)sulfonyl]-4-phenylpyrrolidin-3-yl} benzamide] the value was no more than 10000 nM.

The experiment is the same for the next values; noted with them: radioligand binding, recombinant CHO cell membranes expressing human GlyT1c.
Regarding `Cn1cnc(S(=O)(=O)N2C[C@@H](Nc3ccc(F)c(C(F)(F)F)c3)[C@H](C3CCCO3)C2)c1` (relative stereo) [Example 843, Trans-N-[4-fluoro-3-(trifluoromethyl)phenyl]-1-[(1-methyl-1H-imidazol-4-yl)sulfonyl]-4-(tetrahydrofuran-2-yl)pyrrolidin-3-amine], the inhibitory constant (Ki) was no more than 100 nM.

Usually Ki stands for a dissociation constant, usually derived from enzyme kinetics or from competition with a known ligand.
